Laboratory results as given in patent US8354403B2, “Pyrrolidine derived beta 3 adrenergic receptor agonists” (Merck Sharp & Dohme Corp., priority 2009, dated 2013).
Like-named read-outs stand apart in the source and are kept apart here.

Target: T1, human β3 adrenergic receptor (Homo sapiens, UniProt P13945)
T1 construct: expressed in transfected cells; host or cells: Chinese hamster ovary (CHO) cells, stably transfected
Assay: Beta-3 agonist in vitro functional assay: cAMP production (LANCE TR-FRET) in CHO cells stably transfected with the cloned β3 receptor
Format: cell-based
Description: Chinese hamster ovary (CHO) cells, stably transfected with the cloned β-adrenergic receptor (β1, β2 or β3) are harvested after 3 days of subculturing. Harvesting of cells is done with Enzyme-free Dissociation Media (Specialty Media). Cells are then counted and resuspended in assay buffer (Hank's Balanced salt solution supplemented with 5 mM HEPES, […]) containing a phosphodiesterase inhibitor (IBMX, 0.6 mM). The reaction is initiated by mixing 6,000 cells in 6 μL with 6 μL Alexa Fluor labeled cAMP antibody (LANCE™ kit) which is then added to an assay well containing 12 μL of compound (diluted in assay buffer to 2× final concentration). The reaction proceeds for 30 minutes at RT and is terminated by the addition of 24 ul detection buffer (LANCE™ kit). The assay plate is then incubated for 1 h at RT and time-resolved fluorescence measured on a Perkin Elmer Envision reader or equivalent. The unknown cAMP level is determined by comparing fluorescence levels to a cAMP standard curve.
The non-selective, full agonist β-adrenergic ligand isoproterenol is used at all three receptors to determine maximal stimulation. […] Data are analyzed using Microsoft Excel and Graphpad Prism or an internally developed data analysis software package.

[1] = Table 4, cAMP, CHO cells, read-out: Human β3 agonist functional activity

T1 sequence (P13945 whole entry): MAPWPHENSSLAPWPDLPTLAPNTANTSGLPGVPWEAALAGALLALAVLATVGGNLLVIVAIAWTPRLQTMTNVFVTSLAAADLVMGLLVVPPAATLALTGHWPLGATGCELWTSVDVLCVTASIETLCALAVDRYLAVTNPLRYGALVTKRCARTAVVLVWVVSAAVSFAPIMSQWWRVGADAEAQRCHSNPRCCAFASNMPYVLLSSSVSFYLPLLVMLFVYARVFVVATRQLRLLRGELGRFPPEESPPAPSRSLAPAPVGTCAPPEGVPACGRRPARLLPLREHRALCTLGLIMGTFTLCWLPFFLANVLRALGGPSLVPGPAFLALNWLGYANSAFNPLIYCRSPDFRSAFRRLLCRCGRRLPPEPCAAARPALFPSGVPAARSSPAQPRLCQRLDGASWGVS

SMILES | EC50 [1] [nM] | EC50 (Human β3 agonist functional activity) [nM]
O=C(c1ccc(C[C@@H]2CC[C@H]([C@H](O)c3ccccc3)N2)cc1)N1CC(Oc2cncc(Cl)n2)C1 [Example 3] | 100 to 999 | –
NC(=O)C1(F)CN(C(=O)c2ccc(C[C@@H]3CC[C@H]([C@H](O)c4ccccc4)N3)cc2)C1 [Example 4] | 100 to 999 | –
O=C(OCc1ccccc1)N1CC2(C1)CN(C(=O)c1ccc(C[C@@H]3CC[C@H]([C@H](O)c4ccccc4)N3)cc1)C2 [Example 5] | 100 to 999 | –
CCOC(=O)C1CCN(C(=O)c2ccc(C[C@@H]3CC[C@H]([C@H](O)c4ccccc4)N3)cc2)C1 (some centres unmarked) [Example 6] | 100 to 999 | –
CO[C@@H]1CCN(C(=O)c2ccc(C[C@@H]3CC[C@H]([C@H](O)c4ccccc4)N3)cc2)C1 [Example 7] | 100 to 999 | –
CO[C@H]1CCN(C(=O)c2ccc(C[C@@H]3CC[C@H]([C@H](O)c4ccccc4)N3)cc2)C1 [Example 8] | 100 to 999 | –
CN(C)C1CCN(C(=O)c2ccc(C[C@@H]3CC[C@H]([C@H](O)c4ccccc4)N3)cc2)C1 (some centres unmarked) [Example 9] | 100 to 999 | –
Cc1noc(C2CCN(C(=O)c3ccc(C[C@@H]4CC[C@H]([C@H](O)c5ccccc5)N4)cc3)C2)n1 (some centres unmarked) [Example 11] | 100 to 999 | –
CC1(O)CCN(C(=O)c2ccc(C[C@@H]3CC[C@H]([C@H](O)c4ccccc4)N3)cc2)C1 (some centres unmarked) [Example 12] | 100 to 999 | –
O=C(c1ccc(C[C@@H]2CC[C@H]([C@H](O)c3ccccc3)N2)cc1)N1CCC2(CCOC2=O)C1 (some centres unmarked) [Example 13] | 10 to 99.9 | –
Cc1nonc1C1CCCN1C(=O)c1ccc(C[C@@H]2CC[C@H]([C@H](O)c3ccccc3)N2)cc1 (some centres unmarked) [Example 14] | 100 to 999 | –
O=C(c1ccc(C[C@@H]2CC[C@H]([C@H](O)c3ccccc3)N2)cc1)N1CCCC1c1nccs1 (some centres unmarked) [Example 15] | 100 to 999 | –
O=C(c1ccc(C[C@@H]2CC[C@H]([C@H](O)c3cccnc3)N2)cc1)N1CCCC1c1ccccc1F (some centres unmarked) [Example 16] | 100 to 999 | –
O=C(c1ccc(C[C@@H]2CC[C@H]([C@H](O)c3ccccc3)N2)cc1)N1CC2CN(Cc3ccccn3)CC2C1 (some centres unmarked) [Example 17] | 100 to 999 | –
O=C(c1ccc(C[C@@H]2CC[C@H]([C@H](O)c3ccccc3)N2)cc1)N1CC2CC(n3ncnn3)CC2C1 (some centres unmarked) [Example 19] | 10 to 99.9 | –
O=C(c1ccc(C[C@@H]2CC[C@H]([C@H](O)c3ccccc3)N2)cc1)N1CC2CC(n3nccn3)CC2C1 (some centres unmarked) [Example 20] | 10 to 99.9 | –
O=C(c1ccc(C[C@@H]2CC[C@H]([C@H](O)c3ccccc3)N2)cc1)N1CC2CC(n3ccnn3)CC2C1 (some centres unmarked) [Example 21] | 10 to 99.9 | –
O=C(c1ccc(C[C@@H]2CC[C@H]([C@H](O)c3ccccc3)N2)cc1)N1CC2CC(n3cncn3)CC2C1 (some centres unmarked) [Example 22] | 100 to 999 | –
O=C(c1ccc(C[C@@H]2CC[C@H]([C@H](O)c3ccccc3)N2)cc1)N1CC2CC(n3cnnn3)CC2C1 (some centres unmarked) [Example 23] | 10 to 99.9 | –
O=C(c1ccc(C[C@@H]2CC[C@H]([C@H](O)c3ccccc3)N2)cc1)N1CC2CCNC2C1 (some centres unmarked) [Example 24] | 100 to 999 | –
O=C(c1ccc(C[C@@H]2CC[C@H]([C@H](O)c3ccccc3)N2)cc1)N1Cc2cncnc2C1 [Example 25] | 100 to 999 | –
O=C(c1ccc(C[C@@H]2CC[C@H]([C@H](O)c3ccccc3)N2)cc1)N1Cc2cocc2C1 [Example 26] | 10 to 99.9 | –
O=C(c1ccc(C[C@@H]2CC[C@H]([C@H](O)c3ccccc3)N2)cc1)N1Cc2c[nH]nc2C1 [Example 27] | 10 to 99.9 | –
Cn1ncc2c1CN(C(=O)c1ccc(C[C@@H]3CC[C@H]([C@H](O)c4ccccc4)N3)cc1)C2 [Example 28] | 100 to 999 | –
CCS(=O)(=O)n1cc2c(n1)CN(C(=O)c1ccc(C[C@@H]3CC[C@H]([C@H](O)c4ccccc4)N3)cc1)C2 [Example 29] | 100 to 999 | –

SMILES | EC50 [1] [nM] | EC50 (Human β3 agonist functional activity) [nM]
O=C(c1ccc(C[C@@H]2CC[C@H]([C@H](O)c3ccccc3)N2)cc1)N1Cc2cnn(C(F)(F)F)c2C1 [Example 30] | 100 to 999 | –
CCOC(=O)C1CCCN(C(=O)c2ccc(C[C@@H]3CC[C@H]([C@H](O)c4ccccc4)N3)cc2)C1 (some centres unmarked) [Example 31] | 10 to 99.9 | –
O=C(OCc1ccccc1)C1CCCN(C(=O)c2ccc(C[C@@H]3CC[C@H]([C@H](O)c4ccccc4)N3)cc2)C1 (some centres unmarked) [Example 32] | 10 to 99.9 | –
O=C(c1ccc(C[C@@H]2CC[C@H]([C@H](O)c3ccccc3)N2)cc1)N1CCCC(c2nc3ccccc3o2)C1 (some centres unmarked) [Example 33] | 100 to 999 | –
O=C(c1ccc(C[C@@H]2CC[C@H]([C@H](O)c3ccccc3)N2)cc1)N1CCCC(c2nc3ccccc3[nH]2)C1 (some centres unmarked) [Example 34] | 100 to 999 | –
CCOC(=O)C1(S(C)(=O)=O)CCCN(C(=O)c2ccc(C[C@@H]3CC[C@H]([C@H](O)c4ccccc4)N3)cc2)C1 (some centres unmarked) [Example 36] | 10 to 99.9 | –
CCOC(=O)C1(F)CCCN(C(=O)c2ccc(C[C@@H]3CC[C@H]([C@H](O)c4ccccc4)N3)cc2)C1 (some centres unmarked) [Example 37] | 100 to 999 | –
O=C(c1ccc(C[C@@H]2CC[C@H]([C@H](O)c3ccccc3)N2)cc1)N1CCCC(S(=O)(=O)c2ncc(Br)s2)C1 (some centres unmarked) [Example 38] | 10 to 99.9 | –
O=C(c1ccc(C[C@@H]2CC[C@H]([C@H](O)c3ccccc3)N2)cc1)N1CCCC2(CCCNC2=O)C1 (some centres unmarked) [Example 39] | 100 to 999 | –
O=C(c1ccc(C[C@@H]2CC[C@H]([C@H](O)c3ccccc3)N2)cc1)N1CCCC2(CCOC2=O)C1 (some centres unmarked) [Example 40] | 10 to 99.9 | –
CC1(C)CC2(CCCN(C(=O)c3ccc(C[C@@H]4CC[C@H]([C@H](O)c5ccccc5)N4)cc3)C2)C(=O)O1 (some centres unmarked) [Example 41] | 10 to 99.9 | –
COc1ccc2c(c1)C(=O)CC1(CCCN(C(=O)c3ccc(C[C@@H]4CC[C@H]([C@H](O)c5cccnc5)N4)cc3)C1)O2 (some centres unmarked) [Example 42] | 100 to 999 | –
COc1ccc2c(c1)C(=O)CC1(CCCN(C(=O)c3ccc(C[C@@H]4CC[C@H]([C@H](O)c5ccccc5)N4)cc3)C1)O2 (some centres unmarked) [Example 43] | 10 to 99.9 | –
O=C(c1ccc(C[C@@H]2CC[C@H]([C@H](O)c3ccccc3)N2)cc1)N1CCCC2(CCc3cc(F)ccc3O2)C1 (some centres unmarked) [Example 44] | 100 to 999 | –
CCOC(=O)C1CCCCN1C(=O)c1ccc(C[C@@H]2CC[C@H]([C@H](O)c3ccccc3)N2)cc1 (some centres unmarked) [Example 48] | 100 to 999 | –
Cc1noc(C2CCCCN2C(=O)c2ccc(C[C@@H]3CC[C@H]([C@H](O)c4ccccc4)N3)cc2)n1 (some centres unmarked) [Example 49] | 999 to 3000 | –
O=C(c1ccc(C[C@@H]2CC[C@H]([C@H](O)c3ccccc3)N2)cc1)N1CCCCC1c1nccs1 (some centres unmarked) [Example 50] | 100 to 999 | –
Cn1ccnc1C1CCCCN1C(=O)c1ccc(C[C@@H]2CC[C@H]([C@H](O)c3ccccc3)N2)cc1 (some centres unmarked) [Example 51] | 100 to 999 | –
Cc1nc2c(s1)CCN(C(=O)c1ccc(C[C@@H]3CC[C@H]([C@H](O)c4ccccc4)N3)cc1)C2 [Example 52] | 100 to 999 | –
O=C(c1ccc(C[C@@H]2CC[C@H]([C@H](O)c3ccccc3)N2)cc1)N1CCc2onc(O)c2C1 [Example 53] | 999 to 3000 | –
O=C(c1ccc(C[C@@H]2CC[C@H]([C@H](O)c3ccccc3)N2)cc1)N1CCc2c(O)noc2C1 [Example 54] | – | 100 to 999
O=C(c1ccc(C[C@@H]2CC[C@H]([C@H](O)c3ccccc3)N2)cc1)N1CCc2oncc2C1 [Example 55] | 100 to 999 | –
O=C(c1ccc(C[C@@H]2CC[C@H]([C@H](O)c3ccccc3)N2)cc1)N1CCC2c3ccccc3OC2C1 (some centres unmarked) [Example 56] | 1 to 9.9 | –
O=C(c1ccc(C[C@@H]2CC[C@H]([C@H](O)c3cccnc3)N2)cc1)N1CCC2c3ccccc3OC2C1 (some centres unmarked) [Example 57] | 1 to 9.9 | –
O=C(c1ccc(C[C@@H]2CC[C@H]([C@H](O)c3ccccc3)N2)cc1)N1CCC2c3cccnc3OC2C1 (some centres unmarked) [Example 58] | 10 to 99.9 | –
